Measurements reported in paper doi:10.1101/2024.06.25.600616, “Presynaptic GABAA receptors control integration of nicotinic input onto dopaminergic axons in the striatum” (bioRxiv, 2024).

Test system: T1, nicotinic acetylcholine receptors (nAChRs) on dopaminergic axons (likely beta2 subunit-containing)
T1 construct: gene Chrnb2; native receptor on dopaminergic axons; with α4 and/or α6 nAChR subunits (native heteromer, not resolved)
Experiment: whole-cell axonal recording of ACh-puff depolarizations; IC50 from jGCaMP8s nicotinic component in striatal slices
Design: species or system Mus musculus

With `C=C(C)[C@@H]1[C@H]2OC(=O)[C@@H]1[C@]1(O)C[C@H]3OC34C(=O)O[C@H]2[C@@]41C.CC(C)(O)[C@@H]1[C@H]2OC(=O)[C@@H]1[C@]1(O)C[C@H]3OC34C(=O)O[C@H]2[C@@]41C` (stereo partly shown) [picrotoxin] the IC50 was 108 µM.
